Results: ChEMBL document CHEMBL1268952, “Design, synthesis, and evaluation of indolinones as inhibitors of the transforming growth factor β receptor I (TGFβRI)” (J Med Chem, 2010)

What was measured:
TGF-beta receptor type-1 [1] = target: T1, TGF-beta receptor type-1 (Homo sapiens, UniProt P36897); assay: Inhibition of TGFbeta receptor in human HaCaT cells assessed as Smad phosphorylation by ELISA; type: cell-based
T1 sequence (P36897 whole entry): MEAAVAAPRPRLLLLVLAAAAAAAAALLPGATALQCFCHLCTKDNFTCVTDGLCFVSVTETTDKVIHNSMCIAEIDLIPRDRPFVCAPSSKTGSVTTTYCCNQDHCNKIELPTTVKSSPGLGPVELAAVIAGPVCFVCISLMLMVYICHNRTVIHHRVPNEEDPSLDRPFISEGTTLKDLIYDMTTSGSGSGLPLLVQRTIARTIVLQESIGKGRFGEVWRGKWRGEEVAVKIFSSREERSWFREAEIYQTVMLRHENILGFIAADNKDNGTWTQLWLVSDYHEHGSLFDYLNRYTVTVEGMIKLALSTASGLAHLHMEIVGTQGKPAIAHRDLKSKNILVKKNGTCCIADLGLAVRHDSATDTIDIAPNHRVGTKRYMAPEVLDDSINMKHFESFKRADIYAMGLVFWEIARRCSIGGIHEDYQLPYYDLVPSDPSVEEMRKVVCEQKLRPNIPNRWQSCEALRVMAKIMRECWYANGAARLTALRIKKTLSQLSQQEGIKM

TGF-beta receptor type-1 [2] = target: T1, TGF-beta receptor type-1; assay: Inhibition of TGFbeta receptor
[3] = target: Platelet-derived growth factor receptor alpha (Homo sapiens, UniProt P16234); assay: Inhibition of PDGFRalpha
Chain of Platelet-derived growth factor receptor alpha (P16234 whole entry): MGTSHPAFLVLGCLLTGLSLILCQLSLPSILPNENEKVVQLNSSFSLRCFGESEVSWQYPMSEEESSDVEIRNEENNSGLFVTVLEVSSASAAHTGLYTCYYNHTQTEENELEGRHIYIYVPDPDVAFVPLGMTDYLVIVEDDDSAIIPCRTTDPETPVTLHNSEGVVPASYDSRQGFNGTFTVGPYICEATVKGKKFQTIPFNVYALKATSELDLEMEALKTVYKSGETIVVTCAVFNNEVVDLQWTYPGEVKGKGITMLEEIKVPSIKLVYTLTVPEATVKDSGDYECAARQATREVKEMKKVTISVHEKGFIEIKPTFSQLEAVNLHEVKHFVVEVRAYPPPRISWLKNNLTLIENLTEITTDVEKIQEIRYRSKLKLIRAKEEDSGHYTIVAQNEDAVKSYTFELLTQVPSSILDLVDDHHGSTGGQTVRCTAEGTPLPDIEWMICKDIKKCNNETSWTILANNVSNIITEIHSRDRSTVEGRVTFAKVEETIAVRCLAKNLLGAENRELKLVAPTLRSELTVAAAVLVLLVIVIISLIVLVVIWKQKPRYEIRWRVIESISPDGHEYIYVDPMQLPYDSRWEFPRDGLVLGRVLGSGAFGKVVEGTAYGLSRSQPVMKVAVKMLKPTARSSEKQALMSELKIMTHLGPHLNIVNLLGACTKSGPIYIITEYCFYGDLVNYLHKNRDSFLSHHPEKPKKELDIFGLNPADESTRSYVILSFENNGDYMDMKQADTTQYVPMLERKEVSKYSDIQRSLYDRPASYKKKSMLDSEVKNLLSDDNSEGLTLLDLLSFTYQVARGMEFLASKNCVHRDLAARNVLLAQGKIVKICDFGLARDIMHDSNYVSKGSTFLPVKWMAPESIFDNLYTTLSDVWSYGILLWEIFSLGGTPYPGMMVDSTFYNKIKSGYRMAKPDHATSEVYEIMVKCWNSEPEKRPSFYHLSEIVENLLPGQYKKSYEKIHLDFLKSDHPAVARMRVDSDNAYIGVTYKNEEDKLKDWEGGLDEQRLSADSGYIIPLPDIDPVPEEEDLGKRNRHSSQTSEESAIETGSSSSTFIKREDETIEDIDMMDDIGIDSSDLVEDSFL

HaCaT = assay: Cytotoxicity against human HaCaT cells
[4] = target: Proto-oncogene tyrosine-protein kinase Src (Homo sapiens) (UniProt P12931); assay: Inhibition of Src at 2 uM
Chain of Proto-oncogene tyrosine-protein kinase Src (Homo sapiens) (P12931 2-536 limits assumed): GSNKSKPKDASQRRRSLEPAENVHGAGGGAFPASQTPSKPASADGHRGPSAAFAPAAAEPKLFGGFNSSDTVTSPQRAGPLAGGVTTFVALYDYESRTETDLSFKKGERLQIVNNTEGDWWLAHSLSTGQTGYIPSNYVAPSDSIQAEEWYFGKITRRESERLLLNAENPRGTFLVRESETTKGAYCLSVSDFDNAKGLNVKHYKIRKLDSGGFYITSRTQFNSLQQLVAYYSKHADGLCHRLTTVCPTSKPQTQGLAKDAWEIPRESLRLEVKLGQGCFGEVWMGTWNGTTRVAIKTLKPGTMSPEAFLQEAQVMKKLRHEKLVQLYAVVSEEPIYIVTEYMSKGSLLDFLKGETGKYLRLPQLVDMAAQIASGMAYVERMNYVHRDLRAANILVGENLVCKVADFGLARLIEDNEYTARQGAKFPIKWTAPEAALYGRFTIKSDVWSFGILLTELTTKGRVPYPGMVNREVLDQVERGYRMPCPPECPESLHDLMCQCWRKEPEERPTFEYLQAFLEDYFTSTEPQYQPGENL

[5] = target: Mitogen-activated protein kinase 8 (Homo sapiens) (UniProt P45983); assay: Inhibition of SAPK1c at 2 uM
Chain of Mitogen-activated protein kinase 8 (Homo sapiens) (P45983 whole entry): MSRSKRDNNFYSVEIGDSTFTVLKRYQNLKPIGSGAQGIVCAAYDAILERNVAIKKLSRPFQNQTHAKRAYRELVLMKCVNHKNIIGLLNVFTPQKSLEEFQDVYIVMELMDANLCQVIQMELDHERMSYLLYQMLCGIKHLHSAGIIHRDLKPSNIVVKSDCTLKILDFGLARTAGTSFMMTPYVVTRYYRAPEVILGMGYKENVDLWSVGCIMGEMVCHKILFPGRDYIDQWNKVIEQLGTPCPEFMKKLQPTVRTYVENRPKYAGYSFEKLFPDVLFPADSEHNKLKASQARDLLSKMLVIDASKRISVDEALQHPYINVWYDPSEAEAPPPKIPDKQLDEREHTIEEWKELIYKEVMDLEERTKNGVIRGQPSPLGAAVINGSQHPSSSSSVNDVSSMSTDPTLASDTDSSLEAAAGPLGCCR

[6] = target: T2, Serine/threonine-protein kinase Sgk1 (Homo sapiens) (UniProt O00141); assay: Inhibition of SGK at 1 uM; values are per cent of control
T2 sequence (whole entry): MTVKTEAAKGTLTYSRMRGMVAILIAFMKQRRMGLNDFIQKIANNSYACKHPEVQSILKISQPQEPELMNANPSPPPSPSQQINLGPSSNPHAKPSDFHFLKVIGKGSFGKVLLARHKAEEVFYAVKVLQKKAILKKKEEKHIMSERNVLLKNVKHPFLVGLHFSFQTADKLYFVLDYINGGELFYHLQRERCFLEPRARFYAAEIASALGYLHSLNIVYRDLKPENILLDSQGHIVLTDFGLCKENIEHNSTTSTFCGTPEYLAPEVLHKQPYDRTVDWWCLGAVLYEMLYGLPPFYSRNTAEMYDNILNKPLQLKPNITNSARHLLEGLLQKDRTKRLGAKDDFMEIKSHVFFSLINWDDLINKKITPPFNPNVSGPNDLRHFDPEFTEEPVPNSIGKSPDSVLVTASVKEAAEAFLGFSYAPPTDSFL

[7] = Inhibition of PKB at 1 uM; values are per cent of control
[8] = target: Ribosomal protein S6 kinase beta-1 (Homo sapiens) (UniProt P23443); assay: Inhibition of S6K1 at 1 uM; values are per cent of control
Chain of Ribosomal protein S6 kinase beta-1 (Homo sapiens) (P23443 whole entry, looked up): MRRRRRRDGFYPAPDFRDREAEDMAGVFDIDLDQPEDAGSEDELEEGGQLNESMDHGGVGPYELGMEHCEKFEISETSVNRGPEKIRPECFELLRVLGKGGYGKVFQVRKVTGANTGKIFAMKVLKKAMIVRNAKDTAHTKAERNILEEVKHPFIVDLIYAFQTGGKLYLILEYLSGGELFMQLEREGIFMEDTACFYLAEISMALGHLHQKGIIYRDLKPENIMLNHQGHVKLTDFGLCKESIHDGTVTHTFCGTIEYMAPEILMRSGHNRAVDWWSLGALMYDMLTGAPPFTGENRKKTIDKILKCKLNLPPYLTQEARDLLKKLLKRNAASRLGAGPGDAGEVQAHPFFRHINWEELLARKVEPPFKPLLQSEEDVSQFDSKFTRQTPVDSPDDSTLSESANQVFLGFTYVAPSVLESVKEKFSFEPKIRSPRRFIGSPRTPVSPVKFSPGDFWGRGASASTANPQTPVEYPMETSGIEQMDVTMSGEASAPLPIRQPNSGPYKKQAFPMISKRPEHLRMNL

[9] = target: Dual specificity mitogen-activated protein kinase kinase 2 (Homo sapiens) (UniProt P36507); assay: Inhibition of MKK2 at 1 uM; values are per cent of control
Chain of Dual specificity mitogen-activated protein kinase kinase 2 (Homo sapiens) (P36507 whole entry): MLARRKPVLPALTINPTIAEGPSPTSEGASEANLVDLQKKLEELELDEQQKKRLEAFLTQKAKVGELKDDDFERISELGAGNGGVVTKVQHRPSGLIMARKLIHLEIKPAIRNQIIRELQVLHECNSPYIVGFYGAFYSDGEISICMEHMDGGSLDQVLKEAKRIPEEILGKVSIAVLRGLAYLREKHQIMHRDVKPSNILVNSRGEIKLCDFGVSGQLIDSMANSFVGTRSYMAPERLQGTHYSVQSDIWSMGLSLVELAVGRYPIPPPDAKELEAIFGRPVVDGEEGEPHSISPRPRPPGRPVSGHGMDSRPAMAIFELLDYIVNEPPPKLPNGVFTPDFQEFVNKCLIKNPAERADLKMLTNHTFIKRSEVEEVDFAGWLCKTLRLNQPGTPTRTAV

[10] = target: Dual specificity mitogen-activated protein kinase kinase 1 (Homo sapiens) (UniProt Q02750); assay: Inhibition of MKK1 at 1 uM; values are per cent of control
Chain of Dual specificity mitogen-activated protein kinase kinase 1 (Homo sapiens) (Q02750 whole entry): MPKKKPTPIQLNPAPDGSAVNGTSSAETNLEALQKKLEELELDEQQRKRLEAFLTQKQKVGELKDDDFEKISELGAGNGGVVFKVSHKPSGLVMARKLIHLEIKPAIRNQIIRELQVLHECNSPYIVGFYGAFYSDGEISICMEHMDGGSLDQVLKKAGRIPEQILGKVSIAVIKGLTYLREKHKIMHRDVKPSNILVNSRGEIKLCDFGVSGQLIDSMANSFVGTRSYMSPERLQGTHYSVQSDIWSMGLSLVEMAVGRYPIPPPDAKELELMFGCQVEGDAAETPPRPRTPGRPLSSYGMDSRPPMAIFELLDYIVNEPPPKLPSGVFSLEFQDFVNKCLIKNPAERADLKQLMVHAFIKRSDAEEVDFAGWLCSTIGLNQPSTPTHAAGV

[11] = target: Dual specificity mitogen-activated protein kinase kinase 1 (Homo sapiens) (UniProt Q02750); assay: Inhibition of MKK1A at 1 uM; values are per cent of control
[12] = target: T3, Mitogen-activated protein kinase 13 (Homo sapiens) (UniProt O15264); assay: Inhibition of p38delta at 1 uM; values are per cent of control
T3 sequence (whole entry): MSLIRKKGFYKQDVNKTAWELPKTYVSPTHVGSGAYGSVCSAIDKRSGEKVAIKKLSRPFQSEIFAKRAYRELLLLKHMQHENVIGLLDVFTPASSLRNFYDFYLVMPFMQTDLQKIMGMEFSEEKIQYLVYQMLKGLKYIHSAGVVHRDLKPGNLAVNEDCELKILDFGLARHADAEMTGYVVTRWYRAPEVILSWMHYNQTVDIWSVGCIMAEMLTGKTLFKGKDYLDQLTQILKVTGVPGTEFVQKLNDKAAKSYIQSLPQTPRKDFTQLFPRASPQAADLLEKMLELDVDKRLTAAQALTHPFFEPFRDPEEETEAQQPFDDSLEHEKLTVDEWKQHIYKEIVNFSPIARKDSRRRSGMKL

[13] = target: Mitogen-activated protein kinase 14 (Homo sapiens) (UniProt Q16539); assay: Inhibition of p38alpha at 1 uM; values are per cent of control
Chain of Mitogen-activated protein kinase 14 (Homo sapiens) (Q16539 whole entry): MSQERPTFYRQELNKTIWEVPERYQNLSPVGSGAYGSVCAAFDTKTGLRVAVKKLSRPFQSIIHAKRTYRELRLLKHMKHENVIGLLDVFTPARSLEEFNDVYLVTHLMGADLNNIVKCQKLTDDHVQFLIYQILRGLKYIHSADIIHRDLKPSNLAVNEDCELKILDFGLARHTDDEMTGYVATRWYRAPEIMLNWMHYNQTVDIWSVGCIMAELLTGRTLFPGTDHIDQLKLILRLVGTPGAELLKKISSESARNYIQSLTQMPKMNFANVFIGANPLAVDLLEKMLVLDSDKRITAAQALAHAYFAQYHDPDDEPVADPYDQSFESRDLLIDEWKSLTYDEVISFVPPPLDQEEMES

[14] = target: Cyclin-dependent kinase 2/cyclin A (Homo sapiens) (UniProt P24941+P20248+P78396); assay: Inhibition of CDK2/cyclin A at 1 uM; values are per cent of control
[15] = target: Mitogen-activated protein kinase 11 (Homo sapiens) (UniProt Q15759); assay: Inhibition of p38beta2 at 1 uM; values are per cent of control
Chain of Mitogen-activated protein kinase 11 (Homo sapiens) (Q15759 whole entry): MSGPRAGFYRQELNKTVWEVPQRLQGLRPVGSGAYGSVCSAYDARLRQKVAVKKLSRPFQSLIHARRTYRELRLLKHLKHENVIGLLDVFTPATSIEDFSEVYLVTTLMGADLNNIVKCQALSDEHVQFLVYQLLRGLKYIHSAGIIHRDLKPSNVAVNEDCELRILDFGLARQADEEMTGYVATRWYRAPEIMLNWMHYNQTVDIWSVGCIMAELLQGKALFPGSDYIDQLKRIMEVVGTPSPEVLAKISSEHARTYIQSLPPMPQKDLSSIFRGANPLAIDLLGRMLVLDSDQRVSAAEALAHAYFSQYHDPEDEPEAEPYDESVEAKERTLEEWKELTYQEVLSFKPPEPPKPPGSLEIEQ

[16] = target: Mitogen-activated protein kinase 12 (Homo sapiens) (UniProt P53778); assay: Inhibition of p38-gamma at 1 uM; values are per cent of control
Chain of Mitogen-activated protein kinase 12 (Homo sapiens) (P53778 whole entry): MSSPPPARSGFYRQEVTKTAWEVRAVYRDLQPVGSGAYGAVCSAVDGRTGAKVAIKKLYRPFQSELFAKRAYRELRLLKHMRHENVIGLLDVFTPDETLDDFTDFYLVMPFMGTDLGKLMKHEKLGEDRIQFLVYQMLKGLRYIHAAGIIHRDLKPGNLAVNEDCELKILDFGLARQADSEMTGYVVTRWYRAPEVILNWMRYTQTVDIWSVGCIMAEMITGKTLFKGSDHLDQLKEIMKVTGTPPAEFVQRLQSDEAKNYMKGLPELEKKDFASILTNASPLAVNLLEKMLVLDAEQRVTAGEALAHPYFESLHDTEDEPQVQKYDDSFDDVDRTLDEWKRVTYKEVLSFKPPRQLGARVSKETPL

[17] = target: Bone morphogenetic protein receptor type-2 (Homo sapiens, UniProt Q13873); assay: Inhibition of BMPR2
TGF-beta receptor type-2 = TGF-beta receptor type-2 (Homo sapiens, UniProt P37173); assay: Inhibition of TGFbeta2 receptor

Compound `CCNCc1ccc(N/C(=C2\C(=O)Nc3cc(C(=O)N(C)CC)ccc32)c2ccccc2)cc1` has an EC50 (TGF-beta receptor type-1 [1]) of 160 nM, an IC50 (TGF-beta receptor type-1 [2]) of 32 nM and an IC50 [3] of 1100 nM. For the same compound, the IC50 (HaCaT) was > 1000 nM, the residual activity [4] was 61% and the residual activity [5] was 91%. The residual activity [6] was 106%, the residual activity [7] was 92% and the residual activity [8] was 89%. It also gave a residual activity [9] of 97%, a residual activity [10] of 61% and a residual activity [11] of 50%. For the same compound, the residual activity [12] was 86%, the residual activity [13] was 85% and the residual activity [14] was 87%.

With `CCNC(=O)c1ccc2c(c1)NC(=O)/C2=C(\Nc1ccc(CN(C)C)cc1)c1ccccc1` the EC50 (TGF-beta receptor type-1 [1]) was 185 nM, the IC50 (TGF-beta receptor type-1 [2]) was 19 nM and the IC50 [3] was 99 nM. The IC50 (HaCaT) was > 1000 nM, the residual activity [4] was 86% and the residual activity [5] was 99%. The residual activity [6] was 124%, the residual activity [7] was 106% and the residual activity [8] was 101%. For the same compound, the residual activity [10] was 59%, the residual activity [11] was 93% and the residual activity [13] was 121%. For the same compound, the residual activity [14] was 103%.

`O=C1Nc2ccccc2/C1=C(/Nc1ccc(CN2CCCCC2)cc1)c1ccccc1` showed an IC50 (TGF-beta receptor type-1 [2]) of 3460 nM, a residual activity [5] of 8% and a residual activity [6] of 20%. For the same compound, the residual activity [7] was 88%, the residual activity [8] was 12% and the residual activity [9] was 75%. It also gave a residual activity [10] of 4%, a residual activity [11] of 0% and a residual activity [13] of 96%. For the same compound, the residual activity [14] was 38%.

For `CCNC(=O)c1ccc2c(c1)NC(=O)/C2=C(\Nc1ccc(N(CCN(C)C)S(C)(=O)=O)cc1)c1ccccc1`, the EC50 (TGF-beta receptor type-1 [1]) was 108 nM, the IC50 (TGF-beta receptor type-1 [2]) was 1 nM and the IC50 [3] was 74 nM. The residual activity [5] was 105%, the residual activity [6] was 107% and the residual activity [7] was 90%. For the same compound, the residual activity [8] was 100%, the residual activity [10] was 53% and the residual activity [11] was 80%. For the same compound, the residual activity [13] was 110% and the residual activity [14] was 100%.

In the case of `CN(C)C(=O)c1ccc2c(c1)/C(=C(/Nc1ccc(CN3CCCCC3)cc1)c1ccccc1)C(=O)N2`, the EC50 (TGF-beta receptor type-1 [1]) is reported as 198 nM, the IC50 (TGF-beta receptor type-1 [2]) is reported as 186 nM and the IC50 (HaCaT) is reported as > 1000 nM. For the same compound, the residual activity [5] was 90%, the residual activity [6] was 68% and the residual activity [7] was 93%. It also gave a residual activity [8] of 76%, a residual activity [9] of 94% and a residual activity [10] of 12%. The residual activity [11] was 4%, the residual activity [12] was 99% and the residual activity [15] was 100%. It also gave a residual activity [13] of 91%, a residual activity [16] of 91% and a residual activity [14] of 39%.

For `CCN(C)C(=O)c1ccc2c(c1)NC(=O)/C2=C(\Nc1ccc(CN2CCCCC2)cc1)c1ccccc1`, the EC50 (TGF-beta receptor type-1 [1]) was 105 nM, the IC50 [17] was > 50 µM and the IC50 (TGF-beta receptor type-2) was 19 µM. The IC50 [3] was 890 nM, the IC50 (HaCaT) was > 1000 nM and the residual activity [4] was 86%. The residual activity [5] was 89%, the residual activity [6] was 123% and the residual activity [7] was 97%. It also gave a residual activity [8] of 96%, a residual activity [9] of 102% and a residual activity [10] of 48%. For the same compound, the residual activity [11] was 47%, the residual activity [12] was 108% and the residual activity [15] was 98%. It also gave a residual activity [13] of 92%, a residual activity [16] of 93% and a residual activity [14] of 110%.
